# Tests used:
# [1] = Peak free concentration at 200 mg/24 hrs regimen in vitro PK model; assay type: ADME
# [2] = system: Streptococcus pneumoniae; assay: Bactericidal activity against Streptococcus pneumoniae ATCC 49619 with Parc S79Y mutation and gyrA S81F mutation at fAUC/MIC of 35 after 96 hrs in pharmacodynamic model; conditions: ATCC 49619, 96 h
# [3] = system: Streptococcus pneumoniae; assay: Bactericidal activity against Streptococcus pneumoniae BSP-2443 at fAUC/MIC of 62 after 24 to 96 hrs in pharmacodynamic model; conditions: BSP2443
# [4] = Half life at 175 mg/24 hrs regimen in vitro PK model; assay type: ADME
# [5] = system: Streptococcus pneumoniae; assay: Bactericidal activity against Streptococcus pneumoniae ATCC 49619 at fAUC/MIC of 67 after 24 to 96 hrs in pharmacodynamic model
# [6] = Peak free concentration at 175 mg/24 hrs regimen in vitro PK model; assay type: ADME
# [7] = system: Streptococcus pneumoniae; assay: Bactericidal activity against Streptococcus pneumoniae ATCC 49619 at fAUC/MIC of 66 after 24 to 96 hrs in pharmacodynamic model
# [8] = system: Streptococcus pneumoniae; assay: fAUC/MIC ratio of Streptococcus pneumoniae ATCC 49619 at 150 mg
# [9] = system: Streptococcus pneumoniae; assay: fAUC/MIC ratio of Streptococcus pneumoniae ATCC 49619 at 175 mg
# [10] = Half life at 150 mg/24 hrs regimen in vitro PK model; assay type: ADME
# [11] = Peak free concentration at 100 mg/24 hrs regimen in vitro PK model; assay type: ADME
# [12] = system: Streptococcus pneumoniae; assay: Bactericidal activity against Streptococcus pneumoniae ATCC 49619 with Parc S79Y mutation and gyrA S81F mutation at fAUC/MIC of 35 after 48 hrs in pharmacodynamic model; conditions: ATCC 49619, 48 h
# [13] = system: Streptococcus pneumoniae; assay: fAUC/MIC ratio of Streptococcus pneumoniae BSP-2443 at 235 mg
# [14] = Half life at 100 mg/24 hrs regimen in vitro PK model; assay type: ADME
# [15] = system: Streptococcus pneumoniae; assay: Bactericidal activity against Streptococcus pneumoniae ATCC 49619 with S79Y Parc mutation and S81F gyrA mutation at fAUC/MIC of 60 after 96 hrs in pharmacodynamic model; conditions: ATCC 49619, 96 h
# [16] = system: Streptococcus pneumoniae; assay: fAUC/MIC ratio of Streptococcus pneumoniae ATCC 49619 at 100 mg
# [17] = Half life at 200 mg/24 hrs regimen in vitro PK model; assay type: ADME
# [18] = system: Streptococcus pneumoniae; assay: Susceptibility of Streptococcus pneumoniae ATCC 49619 by microdilution method; assay type: functional
# [19] = system: Streptococcus pneumoniae; assay: Bactericidal activity against Streptococcus pneumoniae BSP-2443 at fAUC/MIC of 51 after 24 to 48 hrs in pharmacodynamic model; conditions: BSP2443
# [20] = system: Streptococcus pneumoniae; assay: Bactericidal activity against Streptococcus pneumoniae ATCC 49619 with Parc S79Y mutation and gyrA S81F mutation at fAUC/MIC of 35 after 72 hrs in pharmacodynamic model; conditions: ATCC 49619, 72 h
# [21] = system: Streptococcus pneumoniae; assay: Susceptibility of Streptococcus pneumoniae BSP-2443 by microdilution method; assay type: functional; conditions: BSP2443
# [22] = system: Streptococcus pneumoniae; assay: Bactericidal activity against Streptococcus pneumoniae ATCC 49619 with parC S79Y mutation at fAUC/MIC of 60 after 72 hrs in pharmacodynamic model; conditions: ATCC 49619, 72 h
# [23] = Peak free concentration at 400 mg/24 hrs regimen in vitro PK model; assay type: ADME
# [24] = system: Streptococcus pneumoniae; assay: Bactericidal activity against Streptococcus pneumoniae ATCC 49619 with Parc S79Y mutation at fAUC/MIC of 35 after 24 hrs in pharmacodynamic model; conditions: ATCC 49619, 24 h
# [25] = system: Streptococcus pneumoniae; assay: Bactericidal activity against Streptococcus pneumoniae ATCC 49619 at fAUC/MIC of 60 after 48 hrs in pharmacodynamic model; conditions: ATCC 49619, 48 h
# [26] = system: Streptococcus pneumoniae; assay: fAUC/MIC ratio of Streptococcus pneumoniae ATCC 49619 at 200 mg
# [27] = system: Streptococcus pneumoniae; assay: fAUC/MIC ratio of Streptococcus pneumoniae BSP-2443 at 198 mg
# [28] = system: Streptococcus pneumoniae; assay: Bactericidal activity against Streptococcus pneumoniae ATCC 49619 at fAUC/MIC of 144 after 24 to 96 hrs in pharmacodynamic model
# [29] = system: Streptococcus pneumoniae; assay: Bactericidal activity against Streptococcus pneumoniae BSP-2443 with parC S52G, N91D mutation at fAUC/MIC of 51 after 72 hrs in pharmacodynamic model; conditions: BSP2443, 72 h
# [30] = system: Streptococcus pneumoniae; assay: Bactericidal activity against Streptococcus pneumoniae BSP-2443 with parC S52G, N91D mutation and gyrA S114G mutation at fAUC/MIC of 51 after 96 hrs in pharmacodynamic model; conditions: BSP2443, 96 h
# [31] = Half life at 400 mg/24 hrs regimen in vitro PK model; assay type: ADME
# [32] = system: Streptococcus pneumoniae; assay: Bactericidal activity against Streptococcus pneumoniae ATCC 49619 at fAUC/MIC of 60 after 24 hrs in pharmacodynamic model; conditions: ATCC 49619, 24 h
# [33] = system: Streptococcus pneumoniae; assay: fAUC/MIC ratio of Streptococcus pneumoniae ATCC 49619 at 400 mg
# [34] = Peak free concentration at 150 mg/24 hrs regimen in vitro PK model; assay type: ADME
# [35] = Half life at 250 mg/24 hrs regimen in vitro PK model; assay type: ADME
# [36] = system: Streptococcus pneumoniae; assay: Bactericidal activity against Streptococcus pneumoniae BSP-2443 at fAUC/MIC of 34 after 24 to 48 hrs in pharmacodynamic model; conditions: BSP2443
# [37] = system: Streptococcus pneumoniae; assay: Bactericidal activity against Streptococcus pneumoniae ATCC 49619 at fAUC/MIC of 119 after 24 to 96 hrs in pharmacodynamic model
# [38] = system: Streptococcus pneumoniae; assay: Bactericidal activity against Streptococcus pneumoniae BSP-2443 with parC S79Y, S52G, N91D mutation and gyrA S114G mutation at fAUC/MIC of 34 after 72 to 96 hrs in pharmacodynamic model; conditions: BSP2443
# [39] = system: Streptococcus pneumoniae; assay: fAUC/MIC ratio of Streptococcus pneumoniae BSP-2443 at 100 mg
# [40] = system: Streptococcus pneumoniae; assay: Bactericidal activity against Streptococcus pneumoniae ATCC 49619 at fAUC/MIC of 78 after 24 to 96 hrs in pharmacodynamic model
# [41] = system: Streptococcus pneumoniae; assay: Bactericidal activity against Streptococcus pneumoniae BSP-2443 at fAUC/MIC of 60.2 after 24 to 96 hrs in pharmacodynamic model; conditions: BSP2443
# [42] = Half life at 50 mg/24 hrs regimen in vitro PK model; assay type: ADME
# [43] = Peak free concentration at 50 mg/24 hrs regimen in vitro PK model; assay type: ADME
# [44] = system: Streptococcus pneumoniae; assay: Bactericidal activity against Streptococcus pneumoniae BSP-2443 at fAUC/MIC of 51.3 after 24 to 96 hrs in pharmacodynamic model; conditions: BSP2443
# [45] = system: Streptococcus pneumoniae; assay: fAUC/MIC ratio of Streptococcus pneumoniae ATCC 49610 at 50 mg
# [46] = system: Streptococcus pneumoniae; assay: Bactericidal activity against Streptococcus pneumoniae ATCC 49619 at fAUC/MIC of 146 after 24 to 96 hrs in pharmacodynamic model
# [47] = system: Streptococcus pneumoniae; assay: Bactericidal activity against Streptococcus pneumoniae ATCC 49619 with parC S79Y mutation at fAUC/MIC of 37 after 72 hrs in pharmacodynamic model; conditions: ATCC 49619, 72 h
# [48] = system: Streptococcus pneumoniae; assay: fAUC/MIC ratio of Streptococcus pneumoniae ATCC 49610 at 320 mg
# [49] = system: Streptococcus pneumoniae; assay: fAUC/MIC ratio of Streptococcus pneumoniae BSP-2443 at 75 mg
# [50] = system: Streptococcus pneumoniae; assay: fAUC/MIC ratio of Streptococcus pneumoniae BSP-2443 at 50 mg
# [51] = system: Streptococcus pneumoniae; assay: fAUC/MIC ratio of Streptococcus pneumoniae ATCC 49610 at 75 mg
# [52] = system: Streptococcus pneumoniae; assay: Bactericidal activity against Streptococcus pneumoniae ATCC 49619 at fAUC/MIC of 50.5 after 24 to 96 hrs in pharmacodynamic model
# [53] = system: Streptococcus pneumoniae; assay: Bactericidal activity against Streptococcus pneumoniae ATCC 49619 with parC S79Y mutation at fAUC/MIC of 37 after 96 hrs in pharmacodynamic model; conditions: ATCC 49619, 96 h
# [54] = system: Streptococcus pneumoniae; assay: Bactericidal activity against Streptococcus pneumoniae ATCC 49619 at fAUC/MIC of 65.3 after 24 to 96 hrs in pharmacodynamic model
# [55] = Half life at 320 mg/24 hrs regimen in vitro PK model; assay type: ADME
# [56] = system: Streptococcus pneumoniae; assay: fAUC/MIC ratio of Streptococcus pneumoniae ATCC 49610 at 250 mg
# [57] = Peak free concentration at 250 mg/24 hrs regimen in vitro PK model; assay type: ADME
# [58] = system: Streptococcus pneumoniae; assay: Bactericidal activity against Streptococcus pneumoniae ATCC 49619 at fAUC/MIC of 37 after 24 to 48 hrs in pharmacodynamic model
# [59] = Half life at 75 mg/24 hrs regimen in vitro PK model; assay type: ADME
# [60] = Peak free concentration at 75 mg/24 hrs regimen in vitro PK model; assay type: ADME
# [61] = Peak free concentration at 320 mg/24 hrs regimen in vitro PK model; assay type: ADME
smiles,measurement,setting,value
COc1c(N2CCNC(C)C2)c(F)cc2c(=O)c(C(=O)O)cn(C3CC3)c12 (centres undefined) [GATIFLOXACIN],Activity,[1],1.38 µg/mL
same,MIC,[2],8 µg/mL
same,MIC,[3],0.25 µg/mL
same,half-life,[4],7.57 h
same,MIC,[5],0.19 µg/mL
same,Activity,[6],1.22 µg/mL
same,MIC,[7],0.19 µg/mL
same,fAUC/MIC,[8],60
same,fAUC/MIC,[9],66
same,half-life,[10],8.16 h
same,Activity,[11],0.71 µg/mL
same,MIC,[12],6 µg/mL
same,fAUC/MIC,[13],62
same,half-life,[14],7.65 h
same,MIC,[15],4 µg/mL
same,fAUC/MIC,[16],35
same,half-life,[17],8.65 h
same,MIC,[18],0.025 µg/mL
same,MIC,[19],0.25 µg/mL
same,MIC,[20],6 µg/mL
same,MIC,[21],0.025 µg/mL
same,MIC,[22],0.75 µg/mL
same,Activity,[23],2.79 µg/mL
same,MIC,[24],0.38 µg/mL
same,MIC,[25],0.25 µg/mL
same,fAUC/MIC,[26],67
same,fAUC/MIC,[27],51
same,MIC,[28],0.19 µg/mL
same,MIC,[29],0.38 µg/mL
same,MIC,[30],3 µg/mL
same,half-life,[31],8.01 h
same,MIC,[32],0.25 µg/mL
same,fAUC/MIC,[33],144
same,Activity,[34],1.13 µg/mL
CO/N=C1\CN(c2nc3c(cc2F)c(=O)c(C(=O)O)cn3C2CC2)CC1CN (centres undefined) [GEMIFLOXACIN],half-life,[35],7.22 h
same,MIC,[36],0.03 µg/mL
same,MIC,[37],0.03 µg/mL
same,MIC,[38],0.125 µg/mL
same,fAUC/MIC,[39],69.2
same,MIC,[40],0.03 µg/mL
same,MIC,[41],0.03 µg/mL
same,half-life,[42],7.45 h
same,Activity,[43],0.12 µg/mL
same,MIC,[44],0.03 µg/mL
same,fAUC/MIC,[8],78
same,half-life,[10],7.5 h
same,Activity,[11],0.23 µg/mL
same,fAUC/MIC,[45],37
same,MIC,[46],0.03 µg/mL
same,half-life,[14],8.22 h
same,MIC,[47],0.25 µg/mL
same,fAUC/MIC,[48],146
same,fAUC/MIC,[49],51.3
same,fAUC/MIC,[16],65.3
same,fAUC/MIC,[50],34
same,MIC,[18],0.025 µg/mL
same,fAUC/MIC,[51],50.5
same,MIC,[21],0.025 µg/mL
same,MIC,[52],0.03 µg/mL
same,MIC,[53],0.25 µg/mL
same,MIC,[54],0.03 µg/mL
same,half-life,[55],7.58 h
same,fAUC/MIC,[56],119
same,Activity,[57],0.51 µg/mL
same,MIC,[58],0.03 µg/mL
same,half-life,[59],7.19 h
same,Activity,[60],0.17 µg/mL
same,Activity,[61],0.62 µg/mL
same,Activity,[34],0.31 µg/mL
